This note sets out measurements from US20040086607A1, “Food astringency evaluating method and astringency evaluating apparatus” (SAPPORO BREWERIES LIMITED, priority 2001, published 2004).

Common to all, as to assay type: binding
Test [1] concerns gelatin. The test is described as follows: change in frequency with gelatin sensor (quartz oscillator with gelatin immobilized on the electrode). The note with it: catechin 2 ppm and 6 ppm; for change in frequency: gelatin sensor in distilled water, up to 4 minutes after addition, quercetin and epicatechin 20 μM. Here is the method:
First, the gold electrode (diameter: 5 mm) of a sensor equipped with a quartz oscillator (Fragrance Sensor SF-105, product of Sogo Pharmaceutical Co., Ltd.) was immersed in 20 ml of a 1.2 N sodium hydroxide solution for 20 minutes, after which the electrode surface was washed with 500 ml of distilled water and immersed in 1.2 N dilute hydrochloric acid for 2 minutes. The electrode surface was then washed with distilled water and immersed in 12 N concentrated hydrochloric acid for 5 minutes, and the electrode was subsequently washed thoroughly with distilled water and dried at 100° C. for 20 minutes to obtain a quartz oscillator having hydroxyl groups arranged on the electrode surface.
After air-cooling the quartz oscillator, it was immersed in 0.3 ml of a 2% 3-aminopropyltriethoxysilane/acetone solution and allowed to stand at room temperature for 20 hours to introduce amino groups on to the electrode surface. The quartz oscillator was then subjected to ultrasonic washing treatment in 20 ml of acetone and dried at 70° C. for 90 minutes.
Next, 30 μl of 2.5% glutaraldehyde/20 mM phosphate buffer solution (pH 7.0) was placed on the amino group-introduced electrode surface, and the electrode was allowed to stand at room temperature for 2 hours. After then washing the electrode surface in 20 ml of 20 mM phosphate buffer solution and 20 ml of distilled water, it was mounted on an aqueous phase measuring sensor. […]
First, the sensor element measuring section of the gelatin sensor was immersed for 30 seconds in 100 ml of distilled water, and stabilization of frequency was confirmed. Next, 0.1 ml of a catechin/ethanol solution was added to the distilled water, and the change in frequency was measured up to 4 minutes after addition. […]
The change in frequency was also measured in the same manner as above except that quercetin/ethanol solutions and epicatechin/ethanol solutions were used instead of the catechin/ethanol solutions, and the astringency component concentration after addition to the distilled water was adjusted to 20 μM. […]

In test [2] the test system is mouse proline-rich peptide. Briefly: change in frequency with lipid membrane sensor, complex with mouse proline-rich peptide. To be noted: FIG. 9. An excerpt: (§1) The electrode of a sensor equipped with a quartz oscillator (Fragrance Sensor SF-105, product of Sogo Pharmaceutical Co., Ltd.) was coated with a lipid membrane composed of dioctadecylammonium polystyrenesulfonic acid to obtain a lipid membrane sensor.
The obtained astringency evaluating apparatus was used for measurement of the change in frequency corresponding to adsorption on to the lipid membrane by complex between proline-rich peptide and tannic acid.
First, the sensor element measuring section of the lipid membrane sensor was immersed in a 25 mM acetate buffer solution (pH 4.3) dissolving 50, 100 or 150 mg/l of mouse proline-rich peptide (Sawady Technologies), and stabilization of frequency was confirmed. Next, 0.1 ml of tannic acid was added to each mouse proline-rich peptide/acetate buffer solution, and the change in frequency was measured up to 5 minutes after addition. For the measurement, the tannic acid concentration of the buffer solution immediately after tannic acid addition was 8 mg/l.

Test [3] deals with gelatin. The test is described as follows: change in frequency with lipid membrane sensor, complex with gelatin. Here is the method: as §1
The change in frequency was also measured in the same manner as above except that gelatin (Aldrich Chemical Company, Inc.) or bovine serum albumin (Wako Junyaku Kogyo) was used instead of the mouse proline-rich peptide, and tannic acid (concentration after addition to buffer solution [hereunder referred to simply as “concentration in buffer solution”]: 8 mg/l, and polyphenone 100 (concentration in buffer solution: 50 mg/l) were added. As comparative tests, the same measurement was conducted using sucrose (sweet component, concentration in buffer solution: 1.7 mM), quinine sulfate (bitter component, concentration in buffer solution: 0.27 μM), tartaric acid (acidic component, concentration in buffer solution: 14 μM), NaCl (salty component, concentration in buffer solution: 1.1 mM) and glutamic acid (acidic/savory component, concentration in buffer solution: 30 μM). Also, the change in frequency during 4 minutes after adding different components using bovine serum albumin is shown in FIG. 11. […]

In test [4] the target is T1, bovine serum albumin (Bos taurus, UniProt P02769).
T1 construct: purchased Wako Junyaku Kogyo
The test is described as follows: change in frequency with lipid membrane sensor, complex with bovine serum albumin. To be noted: bovine serum albumin in acetate buffer, 4 minutes after adding, tannic acid 8 mg/l, polyphenone 100 50 mg/l, FIG. 11. The procedure: as §1
The change in frequency was also measured in the same manner as above except that gelatin (Aldrich Chemical Company, Inc.) or bovine serum albumin (Wako Junyaku Kogyo) was used instead of the mouse proline-rich peptide, and tannic acid (concentration after addition to buffer solution [hereunder referred to simply as “concentration in buffer solution”]: 8 mg/l, and polyphenone 100 (concentration in buffer solution: 50 mg/l) were added. As comparative tests, the same measurement was conducted using sucrose (sweet component, concentration in buffer solution: 1.7 mM), quinine sulfate (bitter component, concentration in buffer solution: 0.27 μM), tartaric acid (acidic component, concentration in buffer solution: 14 μM), NaCl (salty component, concentration in buffer solution: 1.1 mM) and glutamic acid (acidic/savory component, concentration in buffer solution: 30 μM). Also, the change in frequency during 4 minutes after adding different components using bovine serum albumin is shown in FIG. 11.

T1 sequence (P02769 25-607): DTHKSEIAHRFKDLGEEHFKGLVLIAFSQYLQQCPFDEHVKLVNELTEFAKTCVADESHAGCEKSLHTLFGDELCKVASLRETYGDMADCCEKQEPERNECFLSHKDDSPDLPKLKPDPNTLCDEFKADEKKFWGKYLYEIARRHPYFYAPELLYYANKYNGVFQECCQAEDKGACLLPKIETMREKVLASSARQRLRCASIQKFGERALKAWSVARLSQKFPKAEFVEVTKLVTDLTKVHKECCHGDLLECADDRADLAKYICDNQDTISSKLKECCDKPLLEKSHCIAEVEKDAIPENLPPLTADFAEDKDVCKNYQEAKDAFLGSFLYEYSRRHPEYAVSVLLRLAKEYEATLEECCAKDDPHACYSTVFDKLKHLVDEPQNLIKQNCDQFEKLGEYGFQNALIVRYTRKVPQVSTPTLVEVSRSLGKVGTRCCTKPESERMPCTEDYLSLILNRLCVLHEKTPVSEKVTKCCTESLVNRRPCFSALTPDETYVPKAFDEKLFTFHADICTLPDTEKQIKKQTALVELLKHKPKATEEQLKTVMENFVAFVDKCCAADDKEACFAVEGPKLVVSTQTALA

With `O=c1c(O)c(-c2ccc(O)c(O)c2)oc2cc(O)cc(O)c12` [quercetin], the change in frequency entry in test [1] is “notable change in frequency”.
Regarding `O=C(OC[C@H]1O[C@@H](OC(=O)c2cc(O)c(O)c(OC(=O)c3cc(O)c(O)c(O)c3)c2)[C@H](OC(=O)c2cc(O)c(O)c(OC(=O)c3cc(O)c(O)c(O)c3)c2)[C@@H](OC(=O)c2cc(O)c(O)c(OC(=O)c3cc(O)c(O)c(O)c3)c2)[C@@H]1OC(=O)c1cc(O)c(O)c(OC(=O)c2cc(O)c(O)c(O)c2)c1)c1cc(O)c(O)c(OC(=O)c2cc(O)c(O)c(O)c2)c1` [tannic acid], the change in frequency result in test [2] (25 mM acetate buffer pH 4.3, mouse proline-rich peptide 50, 100 or 150 mg/l, tannic acid 8 mg/l, up to 5 minutes) is reported as “notable change in frequency”; in test [3] (gelatin in acetate buffer, 4 minutes after adding, tannic acid 8 mg/l, polyphenone 100 50 mg/l, FIG. 10), “notable change in frequency”; in test [4] it was “notable change in frequency”. For the same molecule, in test [2] (mouse proline-rich peptide), the “change in frequency versus concentration” value was “greater with increasing tannic acid concentration”. For the same molecule, in test [3] (10 mg/l gelatin/25 mM acetate buffer solution, FIG. 12), the “correlation between tannic acid concentration and change in frequency” value was “adequately satisfactory correlation”.
For catechin, the change in frequency entry in test [1] is reported as “notable change in frequency”. For the same molecule, the “change in frequency versus catechin concentration” value in test [1] (gelatin sensor, FIG. 5) was “greater with increasing catechin concentration”.
